Data from patent publication US20120135917A1, “Anti-Gram Negative Bacteria Agent” (priority 2009, published 2012).
Where two headings read alike, the source gives them in different places.

Columns and labels:
Escherichia coli = experiment: Viable cell count of Escherichia coli with peptide and polymyxin B; assay type: cell-based; conditions: ATCC25922; 3 mM LTLR; polymyxin B 0.2 μg/mL
Method: Escherichia coli (ATCC25922) was used in place of Pseudomonas aeruginosa for the same measurement as in Example 2.
LTLR whose carboxy terminal was amidated was synthesized to examine the action thereof. Under the same conditions as those in Example 1, various concentrations of the amidated LTLR were added to examine changes in the survival rate of Pseudomonas aeruginosa.

[1] = tested on: Pseudomonas aeruginosa (strain PAO1); experiment: Viable cell count of Pseudomonas aeruginosa strain PAO1 cultured with peptide and polymyxin B; assay type: cell-based; conditions: 0.4 μg/mL polymyxin B
Method: At this time, the culture was performed under conditions in which various concentrations of a peptide, LTLR (a peptide consisting of 4 amino acid residues, having the sequence leucine-threonine-leucine-arginine) were added. Under each condition, the number of viable cells of Pseudomonas aeruginosa was measured, and it was measured how the addition of the peptide changes the number of the viable cells compared to the number of the viable cells for no addition of the peptide. The results are shown in the graph of FIG. 4(A).

[2] = tested on: Clinical isolates (strains 24, 42, 83, 88 and 92 of P. aeruginosa), strain nalB, strain nfxC; conditions: 3 mM LTLR, polymyxin B 0.2 μg/mL
Method: In Examples and the like described below, the number of viable cells of Gram-negative bacteria (Pseudomonas aeruginosa or Escherichia coli) is measured as follows. A portion of bacteria cultured at 37° C. overnight is added to a fresh MH medium and continues to be cultured at the same temperature. When the turbidity (absorbance at 600 nm) of the bacteria reaches 0.7-0.8, the bacterial solution is added an MH medium to prepare a bacterial solution diluted 1:100-200, which is used for experimental purposes. A solution in which 60-80 μL of the bacterial solution was added to a solution of a peptide and the like to a final amount of 100 μL is cultured for a certain time (3 hours) while stirring at 37° C. After culture, the bacterial solution was diluted with a PBS solution, and the diluted solution is seeded on an MH agar plate and cultured at 37° C. overnight. The following day, the number of colonies grown on the plate is counted to determine the number of viable bacterial cells.
Clinical isolates (strains 24, 42, 83, 88 and 92 of P. aeruginosa), strain nalB (a strain having acquired high multidrug resistance by highly expressing MexAB-OprM as a drug efflux pump), and strain nfxC (a strain having acquired high multidrug resistance by highly expressing MexEF-OprN as a drug efflux pump) were used in place of the strain PA01 (standard strain) of Pseudomonas aeruginosa used in Example 1 to measure the action of LTLR thereon. In this experiment, the final concentration of polymyxin B was set at 0.2 μg/mL with 3 mM LTLR added to examine changes in the survival rate thereof.

## leucine-threonine-leucine-arginine [LTLR]
Escherichia coli
  survival rate of Escherichia coli: about 1%
[1]; 2.5 mM peptide, 3 hours culture, vs no addition of peptide
  survival rate of Pseudomonas aeruginosa: ~0%
[1]; various concentrations of peptide
  change in survival rate of Pseudomonas aeruginosa: decreased in a manner dependent on the concentration
[2]; P. aeruginosa 24
  Survival Rate (%): 0%
[2]; P. aeruginosa 42
  Survival Rate (%): 43%
[2]; P. aeruginosa 83
  Survival Rate (%): 0%
[2]; P. aeruginosa 88
  Survival Rate (%): 25%
[2]; P. aeruginosa 92
  Survival Rate (%): 9%
[2]; strain nalB (highly expressing MexAB-OprM)
  Survival Rate (%): 0%
[2]; strain nfxC (highly expressing MexEF-OprN)
  Survival Rate (%): 1%
